Like-named read-outs stand apart in the source and are kept apart here.
How the values were obtained:
[1] = system: C57BL/6 mice; settings: 85 mg/kg i.p.; cited from earlier work
[2] = system: transcripts in whole brain; settings: chronic lithium, ref McQuillin et al, 2007; cited from earlier work
[3] = target: HDAC4 (Homo sapiens, UniProt P56524); experiment: biochemical
[4] = system: C57BL/6 mice; experiment: Amphetamine-induced hyperlocomotion (AIH); type: in vivo, mouse; settings: chronic i.p.; Cpd-60 45 mg/kg, SAHA 25 mg/kg; vs vehicle; amphetamine 3.5 mg/kg
Method: (§1) Compounds were administered between 9 am and 1 pm for 7 days prior to the start of behavioral testing, and after completion of each daily session during behavioral testing. Testing was performed 18–24 hr after the previous treatment to avoid transient effects. Amphetamine-induced hyperlocomotion (AIH) was performed as previously described on days 7–9 of treatment with activity measured before and after amphetamine challenge (AccuScan Instruments, Inc.). Forced-swim test (FST) behavior was performed as previously described on day 10 of treatment and total time spent immobile during a 6 min session was scored automatically (Ethovision; Noldus). Treatment effects were analyzed by one way analysis of variance (ANOVA) with post hoc analysis using Least Squared Differences test (SPSS v18.0 IBM).

[5] = system: 80 common CNS targets including receptors, channels and transporters; experiment: CNS target binding assays (Cerep High-Throughput Profile P-3); settings: 10 µM, duplicate; significance 50% inhibition of control binding
From the text: The specific ligand binding to the receptors is defined as the difference between the total binding and the nonspecific binding determined in the presence of an excess of unlabelled ligand. […] The experiment was accepted in accordance with Cerep’s validation Standard Operating Procedure.

[6] = target: HDAC5 (Homo sapiens, UniProt Q9UQL6); experiment: HDAC inhibition assay, recombinant enzyme, Caliper EZ reader
Sequence of HDAC5 (Q9UQL6 whole entry): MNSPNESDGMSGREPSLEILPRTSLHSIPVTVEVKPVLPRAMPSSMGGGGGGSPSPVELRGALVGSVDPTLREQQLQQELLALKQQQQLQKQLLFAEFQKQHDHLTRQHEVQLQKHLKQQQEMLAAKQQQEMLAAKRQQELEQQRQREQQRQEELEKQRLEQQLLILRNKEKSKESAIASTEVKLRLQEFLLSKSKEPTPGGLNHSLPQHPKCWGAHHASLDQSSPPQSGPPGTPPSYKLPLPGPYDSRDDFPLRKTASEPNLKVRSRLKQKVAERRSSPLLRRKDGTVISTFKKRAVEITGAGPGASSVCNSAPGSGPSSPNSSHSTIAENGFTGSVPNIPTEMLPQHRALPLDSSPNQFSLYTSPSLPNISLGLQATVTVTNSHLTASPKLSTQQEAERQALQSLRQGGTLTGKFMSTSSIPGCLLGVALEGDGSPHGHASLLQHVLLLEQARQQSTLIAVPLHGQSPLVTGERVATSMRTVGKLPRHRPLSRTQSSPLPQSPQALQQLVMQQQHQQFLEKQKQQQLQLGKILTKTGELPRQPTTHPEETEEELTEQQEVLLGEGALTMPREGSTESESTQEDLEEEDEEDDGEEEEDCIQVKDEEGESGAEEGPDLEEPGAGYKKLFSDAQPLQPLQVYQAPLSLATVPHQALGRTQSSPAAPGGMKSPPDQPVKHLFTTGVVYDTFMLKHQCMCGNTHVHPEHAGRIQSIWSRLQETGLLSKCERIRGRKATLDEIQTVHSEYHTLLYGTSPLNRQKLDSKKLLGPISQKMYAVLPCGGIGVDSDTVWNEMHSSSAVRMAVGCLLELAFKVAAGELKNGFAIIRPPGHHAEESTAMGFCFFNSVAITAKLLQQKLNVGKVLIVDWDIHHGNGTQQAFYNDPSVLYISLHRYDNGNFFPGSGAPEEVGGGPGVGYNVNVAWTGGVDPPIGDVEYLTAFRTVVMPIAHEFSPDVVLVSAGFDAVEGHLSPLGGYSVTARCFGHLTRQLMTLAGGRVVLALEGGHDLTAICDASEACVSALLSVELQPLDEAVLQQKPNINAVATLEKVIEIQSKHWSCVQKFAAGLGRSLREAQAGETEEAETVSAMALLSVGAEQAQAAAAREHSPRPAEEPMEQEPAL

[7] = system: C57BL/6 mice; experiment: Forced-swim test (FST); type: in vivo, mouse
Method: as §1

[8] = target: T1, HDAC7 (Homo sapiens, UniProt Q8WUI4); experiment: HDAC inhibition assay, recombinant enzyme, Caliper EZ reader
T1 sequence (Q8WUI4 1-952): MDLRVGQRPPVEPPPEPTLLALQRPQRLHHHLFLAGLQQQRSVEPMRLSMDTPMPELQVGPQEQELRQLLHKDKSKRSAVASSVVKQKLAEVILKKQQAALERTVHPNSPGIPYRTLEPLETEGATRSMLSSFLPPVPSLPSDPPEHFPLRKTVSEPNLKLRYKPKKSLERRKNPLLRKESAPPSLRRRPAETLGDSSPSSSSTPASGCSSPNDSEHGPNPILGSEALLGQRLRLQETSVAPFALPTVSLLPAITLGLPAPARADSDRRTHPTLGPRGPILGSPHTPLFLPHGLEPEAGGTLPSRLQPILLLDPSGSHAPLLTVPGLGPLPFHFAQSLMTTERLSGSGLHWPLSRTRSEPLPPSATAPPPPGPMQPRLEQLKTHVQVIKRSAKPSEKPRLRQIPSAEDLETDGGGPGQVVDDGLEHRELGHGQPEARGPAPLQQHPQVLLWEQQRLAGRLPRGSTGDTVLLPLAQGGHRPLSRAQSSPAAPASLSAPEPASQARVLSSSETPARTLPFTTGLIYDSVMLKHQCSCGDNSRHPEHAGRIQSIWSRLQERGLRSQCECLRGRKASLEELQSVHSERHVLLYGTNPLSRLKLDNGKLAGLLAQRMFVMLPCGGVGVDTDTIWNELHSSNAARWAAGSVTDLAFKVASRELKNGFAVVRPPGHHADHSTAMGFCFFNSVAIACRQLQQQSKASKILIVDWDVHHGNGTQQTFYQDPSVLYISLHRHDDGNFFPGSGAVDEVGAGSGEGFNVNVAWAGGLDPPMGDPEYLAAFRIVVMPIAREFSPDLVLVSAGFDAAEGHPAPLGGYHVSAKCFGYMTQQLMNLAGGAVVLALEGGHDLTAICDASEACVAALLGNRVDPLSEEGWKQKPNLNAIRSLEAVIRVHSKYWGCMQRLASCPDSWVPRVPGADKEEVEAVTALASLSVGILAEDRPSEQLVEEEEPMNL

[9] = system: H4K12 acetylation in HEK293 cells; experiment: H4K12 acetylation western blot, constant exposure and washout; type: cell-based, human; settings: for H4K12ac levels after washout: HEK293, 20 µM 24 hr, then 6 hr after media change; for H4K12ac levels, constant exposure: HEK293, 20 µM for 24 hr
Method: Frozen mouse brains (n = 6/treatment group) were rapidly dissected at 4°C to isolate frontal cortex (including PFC), ventral striatum (including NAc), and HIP for protein extraction. […] Solutions for protein extraction were supplemented with 5 mM sodium butyrate to suppress residual HDAC activity. […] Densitometric quantification was performed using Image J software (NIH) and statistical comparison to vehicle-treated controls by two-tailed t-test.
Protein was extracted by douncing in suspension buffer: 0.1 M NaCl, 0.01 M TrisCl (ph7.6), 0.001 M EDTA (pH 8.0), then immediately diluted with an equal volume of 2x SDS-gel loading buffer: 100 mM TrisCl (ph 6.8), 4% SDS, 20% glycerol, 200 mM DTT. […] Media was aspirated and cells collected for Western blotting using 40 μL buffers as detailed above for mouse brain. Solutions for protein extraction were supplemented with 5 mM sodium butyrate to suppress residual HDAC activity. Samples were denatured at 95°C for 5 min, passaged 3x through a 25 gauge needle and centrifuged at 10,000g for 10 min at room temperature and protein quantification performed using a BCA protein assay kit #23225 (Pierce). […] Chemiluminescent detection of immunoreactivity was performed using SuperSignal West Dura Substrate #34076 (Pierce) with subsequent densitometric quantification using Image J software (NIH) and statistical comparison to vehicle-treated controls by two-tailed t-test.

[10] = Mouse brain pharmacokinetics; type: in vivo; settings: for half-life: read-out: brain T1/2 (converted)
Method: Plasma, brain samples, and dose formulations, were analyzed as previously described using high performance liquid chromatography/mass spectrometry. Data acquisition and control system were created using Analyst 1.4 software (ABI Inc, Canada).

[11] = system: mice; experiment: Tolerability of chronic treatment; type: in vivo; settings: Cpd-60 45 mg/kg i.p., SAHA 25 mg/kg i.p.
[12] = Positron emission tomography of carbon-11 labeled Cpd-60; type: in vivo, baboon (Papio anubis); settings: intravenous, preliminary unpublished data
From the text: Male 11 wk old C57BL/6 mice were utilized for pharmacokinetic, behavioral and biochemical analyses. One female baboon (Papio Anubis) was used to determine brain uptake and pharmacokinetics of Cpd-60. […] Non-human primate housing conditions and feeding regimens were coordinated by the professional investigative staff at the Brookhaven Laboratory Animal Facility which included social housing in cages appropriate for the physical and behavioral health of the individual animal. Animals were fed a 3x per day with additional nutritional supplements provided as prescribed by the attending veterinarian. Environmental enrichment included audio, video and tactile elements (e.g. listening to the radio, watching television, playing with toys and human interaction) and were provided on a daily basis to promote psychological well-being. All procedures were performed without compromising animal welfare and all efforts were made to minimize suffering including adequate use of anesthesia (ketamine, isoflurane) in the baboon imaging experiment. The baboon was not sacrificed following the study and further effort was taken to minimize suffering by allowing an interval of at least one month between subsequent imaging studies in the same animal.
C57BL/6 male mice were purchased at 10 weeks of age from The Jackson Laboratory and Taconic Farms. […]

[13] = system: H4K12ac around TSS of Agxt2l1, Sgk1, Sult1a1, Tsc22d3; experiment: Chromatin immunoprecipitation (H4K12ac) of nucleus accumbens with qPCR; settings: NAc; 0.5 kB downstream of each TSS; 45 mg/kg i.p. 10 days
[14] = target: HDAC9 (Homo sapiens, UniProt Q9UKV0); experiment: HDAC inhibition assay, recombinant enzyme, Caliper EZ reader
Sequence of HDAC9 (Q9UKV0 whole entry): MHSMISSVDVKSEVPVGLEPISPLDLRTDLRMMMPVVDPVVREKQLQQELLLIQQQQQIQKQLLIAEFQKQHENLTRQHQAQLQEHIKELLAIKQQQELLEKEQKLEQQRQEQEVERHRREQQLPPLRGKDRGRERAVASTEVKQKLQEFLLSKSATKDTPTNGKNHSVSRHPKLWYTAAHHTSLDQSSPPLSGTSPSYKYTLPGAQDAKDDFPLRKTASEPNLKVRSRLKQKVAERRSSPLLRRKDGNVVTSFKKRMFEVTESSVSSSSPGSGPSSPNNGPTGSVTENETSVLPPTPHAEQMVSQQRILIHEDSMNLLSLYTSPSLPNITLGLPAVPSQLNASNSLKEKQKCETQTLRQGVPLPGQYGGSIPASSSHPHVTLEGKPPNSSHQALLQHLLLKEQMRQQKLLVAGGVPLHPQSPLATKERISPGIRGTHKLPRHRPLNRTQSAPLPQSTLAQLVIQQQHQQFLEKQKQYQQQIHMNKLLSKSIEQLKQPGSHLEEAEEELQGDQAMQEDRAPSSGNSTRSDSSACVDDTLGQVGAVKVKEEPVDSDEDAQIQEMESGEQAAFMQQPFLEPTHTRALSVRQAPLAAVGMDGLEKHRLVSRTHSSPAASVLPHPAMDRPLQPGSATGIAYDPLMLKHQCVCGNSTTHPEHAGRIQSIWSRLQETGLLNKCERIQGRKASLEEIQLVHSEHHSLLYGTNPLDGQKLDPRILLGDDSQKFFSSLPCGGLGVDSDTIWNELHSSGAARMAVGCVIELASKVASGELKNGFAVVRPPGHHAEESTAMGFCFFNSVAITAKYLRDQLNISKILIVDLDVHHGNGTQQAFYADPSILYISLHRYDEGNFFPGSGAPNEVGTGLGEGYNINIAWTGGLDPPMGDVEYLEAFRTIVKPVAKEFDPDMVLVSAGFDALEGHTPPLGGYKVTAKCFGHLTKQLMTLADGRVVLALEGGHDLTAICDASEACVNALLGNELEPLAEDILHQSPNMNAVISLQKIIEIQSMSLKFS

[15] = target: T2, HDAC8 (Homo sapiens, UniProt Q9BY41); experiment: as above
T2 sequence (Q9BY41 1-377): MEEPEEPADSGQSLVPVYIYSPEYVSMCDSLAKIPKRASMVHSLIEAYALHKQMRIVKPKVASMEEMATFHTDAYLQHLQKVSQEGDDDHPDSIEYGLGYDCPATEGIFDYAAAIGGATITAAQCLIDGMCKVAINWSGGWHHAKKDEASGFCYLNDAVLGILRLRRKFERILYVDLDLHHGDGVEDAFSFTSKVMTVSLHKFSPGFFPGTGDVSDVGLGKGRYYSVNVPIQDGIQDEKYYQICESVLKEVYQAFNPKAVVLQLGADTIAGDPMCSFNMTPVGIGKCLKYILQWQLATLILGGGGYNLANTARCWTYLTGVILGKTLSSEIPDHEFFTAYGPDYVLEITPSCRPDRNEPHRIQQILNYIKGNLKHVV

[16] = system: histone H4K12 acetylation in cultured primary mouse neuronal cells; experiment: Mouse primary neuronal histone acetylation assay; settings: Neuron, 24 h, read-out: EC50 for H4K12 acetylation
[17] = system: transcripts in PFC, NAc and HIP; experiment: Whole genome transcript profiling of brain regions (microarray); type: in vivo, mouse; settings: for overlap with the 121 transcripts modulated by lithium: Gene Set Enrichment Analysis; for transcripts altered across the three regions: PFC, NAc, HIP compiled, ≥[…] vs vehicle; for transcripts up- or down-regulated, summed across the three brain regions: Tukey's HSD p<0.05 vs vehicle
Method: Frozen mouse brains (n = 6/treatment group) were rapidly dissected at 4°C to isolate medial prefrontal cortex (PFC), nucleus accumbens (NAc) and hippocampus (HIP) for mRNA extraction. Whole genome transcript profiling was performed using the Illumina MouseWG-6 Expression BeadChip with subsequent validation by quantitative real-time PCR (qPCR) and is available online at the NCBI Gene Expression Omnibus repository (GSE47452).
Frozen mouse brains (n = 6/ treatment group) were rapidly dissected at 4°C, isolating medial prefrontal cortex, nucleus accumbens and hippocampus. […] For microarray experiments on Illumina MouseWG-6 BeadChips, RNA samples were pooled from two biological replicates such that the total number of samples was 27 (3 treatment groups x 3 brain regions x 3 RNA pools representing two mice per pool). All microarray analysis and gene set analysis (GSA) was performed using GeneSpring software (v.11.5.1) with raw signals adjusted using quantile normalization and baseline transformation with the median signal in all samples set to zero. Data were included in subsequent analyses if the normalized signal, thresholded at 0.8, was ‘present’ for 3 of 3 replicates for like treatment and tissue groups. […] Primer sequences for qPCR validation were designed using NCBI PRIMER-BLAST (Table S2).

[18] = chronic i.p., day 10, Cpd-60 45 mg/kg, SAHA 25 mg/kg, vs vehicle

Sequence of HDAC4 (P56524 whole entry): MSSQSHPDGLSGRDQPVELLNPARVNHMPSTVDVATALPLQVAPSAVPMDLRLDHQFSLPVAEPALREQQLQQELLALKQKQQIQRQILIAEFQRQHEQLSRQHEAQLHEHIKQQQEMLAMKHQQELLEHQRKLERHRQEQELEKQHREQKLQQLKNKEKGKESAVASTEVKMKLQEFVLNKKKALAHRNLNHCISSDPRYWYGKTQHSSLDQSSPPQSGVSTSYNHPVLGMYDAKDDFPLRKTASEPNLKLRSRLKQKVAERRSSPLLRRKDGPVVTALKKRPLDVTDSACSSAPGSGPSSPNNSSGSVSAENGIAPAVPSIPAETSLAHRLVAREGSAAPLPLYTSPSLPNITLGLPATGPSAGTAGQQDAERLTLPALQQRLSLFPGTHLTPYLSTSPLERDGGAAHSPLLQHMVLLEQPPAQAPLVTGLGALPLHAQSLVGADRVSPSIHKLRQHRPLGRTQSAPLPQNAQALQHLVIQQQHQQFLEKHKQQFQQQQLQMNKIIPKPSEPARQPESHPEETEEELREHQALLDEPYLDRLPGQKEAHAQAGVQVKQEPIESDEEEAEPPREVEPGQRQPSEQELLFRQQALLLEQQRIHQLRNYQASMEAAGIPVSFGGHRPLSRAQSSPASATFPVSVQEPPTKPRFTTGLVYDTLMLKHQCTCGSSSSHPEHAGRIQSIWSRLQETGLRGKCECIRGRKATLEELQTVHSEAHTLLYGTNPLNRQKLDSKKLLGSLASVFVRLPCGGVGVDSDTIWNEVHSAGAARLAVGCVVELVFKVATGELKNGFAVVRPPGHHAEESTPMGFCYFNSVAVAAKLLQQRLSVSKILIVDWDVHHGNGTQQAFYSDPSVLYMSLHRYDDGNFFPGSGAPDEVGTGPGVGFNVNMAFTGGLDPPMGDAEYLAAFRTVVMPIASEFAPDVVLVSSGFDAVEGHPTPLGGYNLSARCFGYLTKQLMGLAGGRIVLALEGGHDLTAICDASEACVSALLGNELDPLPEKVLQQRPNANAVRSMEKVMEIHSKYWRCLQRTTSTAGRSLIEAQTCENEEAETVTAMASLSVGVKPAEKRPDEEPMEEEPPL

For `[Li]` [lithium], the “reduction in immobility time” value [1] is given as 48%, the Agxt2l1 fold change [2] is given as 2.73 fold change and the Igfbp5 fold change [2] is given as -1.56 fold change. The Mef2c fold change [2] was -1.22 fold change, the Mfsd2 fold change [2] was 2.65 fold change and the Nrxn1 fold change [2] was -1.18 fold change. For the same compound, the Per2 fold change [2] was 2.47 fold change, the Qdpr fold change [2] was -1.46 fold change and the Sgk1 fold change [2] was 2.85 fold change. For the same compound, the Sult1a1 fold change [2] was 6.28 fold change, the Tsc22d3 fold change [2] was 1.95 fold change and the Usp54 fold change [2] was 1.57 fold change.

With `CC(=O)Nc1ccc(C(=O)Nc2cc(-c3cccs3)ccc2N)cc1` [Cpd-60] the IC50 [3] was over 30 µM, the “reduction of amphetamine-induced hyperlocomotion” value [4] was 36% and the “binding to 80 CNS targets” value [5] was “no significant binding to any of the targets”. The IC50 [6] was over 30 µM, the “reduction in immobility time” value [7, 18] was 67% and the IC50 [8] was over 30 µM. The “H4K12ac levels after washout” value [9] was “persistent increases in H4K12ac”, the “H4K12ac levels, constant exposure” value [9] was “elevated H4K12ac levels” and the concentration at 8 hr ([10]; C57BL/6, mouse, brain, intraperitoneal, 45 mg/kg, systemic treatment, read-out: brain concentration maintained for at least 8 hr) was over 0.1 µM. For the same compound, the Cmax ([10]; C57BL/6, mouse, brain, ip, 45 mg/kg, read-out: brain maximum concentration (Cmax)) was 0.83 µM, the half-life ([10]; C57BL/6, mouse, brain, ip) was 6.44 h and the “time to peak brain concentration” value ([10]; systemic treatment) was at most 5 min. The “tolerability of treatment for longer than 10 days” value [11] was “not well tolerated”, the “brain uptake by PET” value [12] was “reaches the brain, albeit at low levels relative to plasma” and the “H4K12ac levels downstream of the TSS” value [13] was “lower than vehicle-treated controls”. It also gave an IC50 [14] of over 30 µM, an IC50 [15] of over 30 µM and an EC50 [16] of 7.2 µM. The “overlap with the 121 transcripts modulated by lithium” value [17] was 11, the “transcripts altered across the three regions” value [17] was 390 and the “transcripts up- or down-regulated, summed across the three brain regions” value [17] was 1609.

For `CNCCCN1c2ccccc2CCc2ccccc21` [desipramine], the “reduction in immobility time” value ([7]; 15 mg/kg i.p., n = 16/group, data not shown) was 55%.

For `O=C(CCCCCCC(=O)Nc1ccccc1)NO` [SAHA, suberoylanilide hydroxamic acid], the “reduction of amphetamine-induced hyperlocomotion” value [4] was “no effect”, the “reduction in immobility time” value [7, 18] was “did not influence mouse behavior in either paradigm” and the “H4K12ac levels after washout” value [9] was “only Cpd-60-treated cells showed persistent increases in H4K12ac”. The “H4K12ac levels, constant exposure” value [9] was “elevated H4K12ac levels”, the half-life ([10]; C57BL/6, mouse, brain, ip) was 0.44 h and the “time until cleared from the brain” value ([10]; systemic treatment) was at most 2 h. The “overlap with the 121 transcripts modulated by lithium” value [17] was “no significant overlap”, the “transcripts altered across the three regions” value [17] was 288 and the “transcripts up- or down-regulated, summed across the three brain regions” value [17] was 1530. The “downregulated transcripts HIP (total)” value ([17]; ≥[…], post hoc p<0.05) was 148, the “downregulated transcripts NAc (total)” value ([17]; ≥[…], post hoc p<0.05) was 16 and the “downregulated transcripts PFC (total)” value ([17]; ≥[…], post hoc p<0.05) was 5. The “upregulated transcripts HIP (total)” value ([17]; ≥[…], post hoc p<0.05) was 104, the “upregulated transcripts NAc (total)” value ([17]; ≥[…], post hoc p<0.05) was 5 and the “upregulated transcripts PFC (total)” value ([17]; ≥[…], post hoc p<0.05) was 7.

Source: paper PMC3743770, “A Selective HDAC 1/2 Inhibitor Modulates Chromatin and Gene Expression in Brain and Alters Mouse Behavior in Two Mood-Related Tests” (PLoS ONE, 2013)
